Where “and” joins values, the source holds several entries; their conditions need not be identical. Equal values may be shown once.
Legend:
[1] = Storage stability of pteroylazide 27; assay type: physicochemical
Source text: The known impurities include ~4% pteroic acid 10, ~2% of the aniline (PteNH2) apparently resulting from Curtius rearrangement of 27, ~2% of pteroylamide (PteCO--NH2 11); and <1% of folic acid 1. […] Unlike some acyl azides, pteroylazide 27 is quite stable; samples of the lemon-yellow solid may be stored in the dark in a freezer for at least 12 months without appreciable decomposition.

carboxypeptidase G [2] = test: Carboxypeptidase G enantiospecific hydrolysis of folic acid derivatives (HPLC of released pteroic acid); assay type: biochemical; conditions: Tris buffer with ZnCl2, 37° C., 2 h, pyrofolates and monoesters first hydrolysed in 0.25 M NaOH, error about ±2-3%
Description: Since it had been previously observed that guanidine bases are capable of racemizing acylated glutamates (under more forcing conditions than were employed in the reactions listed in Table 2), the optical purity of the folic acid 1 (=25a) and several of its derivatives which had been produced was evaluated. […] In order to assay the pyrofolates 8 and 9 as well as the α- and γ-monoesters of folic acid L-33a and L-33c, an initial mild basic hydrolysis was required prior to the enzyme assay. […] Control reactions on synthetic D-1=25a and DL-1=25a (Table 3, Entries 3,4) serve to confirm the error limits of the enzymatic method at about ±2-3%.
Determination of optical purity of folate derivatives listed in Table 3 using enzymatic hydrolysis with carboxypeptidase G:30:
The folic acid derivative (~2.5 mg) was dissolved in 1 mL Tris buffer containing 20 μg ZnCl2 and 50 microunit enzyme (Sigma Chemical Company) was added. The solution was incubated at 37° C. for 2 h. A 20 μL sample was tested by HPLC on a […] MICROSORB C-18 reverse phase column (Eluent A: 5 mM phosphate buffer; Eluent B: acetonitrile; flow rate: 1 mL/min; gradient: 0-5 min, 5% B, 10-15, 25% B). Folic acid was eluted at 4.1 min, pteroic acid at 10.6 min, methotrexate at 10.8 min, and amino-N10-methyl pteroic acid at 11.9 min. Peak area was used as the standard for analysis.
For folate derivatives, ~5 mg was first dissolved in 1 mL 0.25 M NaOH and incubated at room temperature for 1 h. Then the solution was acidified by 1 M HCl until precipitation. After centrifugation, washing, and drying, the ~2.5 mg yellow pellet was dissolved in 1 mL Tris buffer and reacted with enzyme under the conditions described above.

[3] = target: T1, cell surface folate receptors (Homo sapiens, UniProt P15328); test: Affinities of FITC-EDA-folate for cell surface folate receptors on KB cells; assay type: binding
T1 construct: KB cells overexpressing the receptor; endogenous in cells; host or cells: KB cells
Description: To determine the affinities of EDA-folate for cell surface folate receptors, the α- and γ-isomers were labeled with the fluorophore FITC and incubated with KB cells overexpressing the receptor. […] The low level of non-specific uptake observed with both isomers was probably due to the hydrophobicity of the FITC conjugates.

carboxypeptidase G [4] = conditions: footnote c of Table 3; cited from earlier work

T1 sequence (P15328 25-257): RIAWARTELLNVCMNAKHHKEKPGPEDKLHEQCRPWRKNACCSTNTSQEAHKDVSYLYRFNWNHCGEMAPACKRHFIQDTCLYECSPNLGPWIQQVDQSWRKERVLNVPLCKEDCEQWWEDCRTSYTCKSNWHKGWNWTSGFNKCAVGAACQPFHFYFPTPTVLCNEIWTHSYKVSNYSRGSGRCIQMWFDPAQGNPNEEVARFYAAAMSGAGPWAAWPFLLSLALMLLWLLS

Structure (SMILES) | % Hydrolysis (carboxypeptidase G [2]) | also measured
[N-]=[N+]=NC(=O)c1ccc(NCc2cnc3nc(N)[nH]c(=O)c3n2)cc1 [Compound 27, Pteroylazide] |  | shelf life ([1]; room temperature, protected from light): at least a month; HPLC profile after exposure to light ([1]; samples exposed to light (darken appreciably)): not substantially degraded; storage time without appreciable decomposition ([1]; solid, in the dark in a freezer): at least 12 months
CN(Cc1cnc2nc(N)nc(N)c2n1)c1ccc(C(=O)N[C@@H](CCC(=O)O)C(=O)O)cc1 [Compound L-34d, L-methotrexate, reference compound] | 96.1% and 99.2% | 
COC(=O)CCC(NC(=O)c1ccc(NCc2cnc3nc(N)[nH]c(=O)c3n2)cc1)C(=O)O (racemic) [DL-33a, (DL)-methyl folate (γ)] | 54.4% | 
COC(=O)CC[C@H](NC(=O)c1ccc(NCc2cnc3nc(N)[nH]c(=O)c3n2)cc1)C(=O)O [Compound L-33a, Tetramethylguanidinium (L)-methyl folate (γ)] | 96.8% | 
Nc1nc2ncc(CNc3ccc(C(=O)N[C@H](CCC(=O)O)C(=O)O)cc3)nc2c(=O)[nH]1 [Compound D-25a] | 3.0% | 
Nc1nc2ncc(CNc3ccc(C(=O)NC(CCC(=O)O)C(=O)O)cc3)nc2c(=O)[nH]1 (racemic) [D, L-25a] | 52.3% | 
Nc1nc2ncc(CNc3ccc(C(=O)N[C@@H](CCC(=O)O)C(=O)O)cc3)nc2c(=O)[nH]1 [Compound L-1, Folic acid] | 96.7% | % Hydrolysis (carboxypeptidase G [2]; listed as L-25a): 98.4% and 98.6%; competition with the receptor binding of FITC-EDA-folate(γ) ([3]; excess folic acid in the incubation medium, KB cells): effectively competed
Nc1nc(O)c2nc(CNc3ccc(C(=O)N[C@@H](CCC(=O)NCCNC(=S)Nc4ccc5c(c4)C(=O)OC54c5ccc(O)cc5Oc5cc(O)ccc54)C(=O)O)cc3)cnc2n1 [FITC-EDA-folate(γ)] |  | Kd ([3]; KB cells overexpressing the receptor, read-out: concentration required to reach 50% maximal binding): 1.6 nM
Nc1nc2ncc(CNc3ccc(C(=O)N[C@@H](CCC(=O)O)C(=O)NCCNC(=S)Nc4ccc5c(c4)C(=O)OC54c5ccc(O)cc5Oc5cc(O)ccc54)cc3)nc2c(=O)[nH]1 [α-isomer of FITC-EDA-folate] |  | affinity for the cell surface receptors ([3]; KB cells overexpressing the receptor): virtually no affinity
CC(C)=CCOC(=O)[C@H](CCC(=O)O)NC(=O)c1ccc(NCc2cnc3nc(N)[nH]c(=O)c3n2)cc1 [Compound L-33c] | 85.9% and 96.7% | 
Nc1nc2ncc(CNc3ccc(C(=O)N4C(=O)CCC4C(=O)O)cc3)nc2c(=O)[nH]1 (centres unmarked) [Compound 9, Pyrofolic acid] | 51.7% | 
CN(Cc1cnc2nc(N)nc(N)c2n1)c1ccc(C(=O)N[C@H](CCC(=O)O)C(=O)O)cc1 [Compound D-34d] |  | hydrolysis by carboxypeptidase G (carboxypeptidase G [4]): not to be hydrolyzed
Nc1nc2ncc(CN(C(=O)C(F)(F)F)c3ccc(C(=O)N4C(=O)CCC4C(=O)O)cc3)nc2c(=O)[nH]1 (centres unmarked) [Compound 8, N10-Trifluoroacetylpyrofolic acid] | 49.5% | 

— patent US6291673A, “Folic acid derivatives” (Purdue Research Foundation, priority 2000, dated 2001)
